Measurements reported in patent US8481514B2, “Therapeutical uses of inecalcitol” (Hybrigenics SA, priority 2009, dated 2013).

Assays:
[1] = Dose finding and clinical tolerance study of inecalcitol with docetaxel-prednisone in HRPC patients (safety); format: in vivo, human; settings: for adverse events related to the drug: attribution of the AEs seen under the combination
Procedure: Escalating oral dosages of inecalcitol were combined to chemotherapy in naive HRPC patients. Safety was evaluated in groups of 3-6 patients receiving inecalcitol every other day (qod) or daily (qd) on a 21-day cycle in combination with intravenous docetaxel (75 mg/m2 q3w) and oral prednisone (5 mg bid). Patients (pts) received up to six cycles unless unacceptable toxicity or disease progression. Primary endpoint was dose limiting toxicity (DLT) defined as grade 3 hypercalcemia within the first cycle. Calcemia, creatininemia and complete blood counts were assessed weekly; biochemistry, electrocardiogram and prostate specific antigen (PSA) every 3 weeks. Efficacy endpoint was PSA response defined as ≧30% decline within 3 months.
(§1) Inecalcitol was given to patients in soft gelatine capsules of different sizes, shapes and strengths depending on the dose level studied: one, two or four 40 μg capsules (size 11, oblong shape) for administration of 40, 80 or 160 μg/day, respectively; three or six 100 μg capsules (size 4, round shape) for administration of 300 or 600 μg/day, respectively; five 200 μg capsules (size 7.5, oval shape) for administration of 1,000 μg/day; five 400 μg capsules (size 14, oblong shape) for administration of 2 mg/day, and four 1 mg capsules (size 14, oblong shape) for administration of 4 mg/day. In all the capsules, inecalcitol was present in the fill content as a solution in medium chain triglycerides from fractionated coconut oil at different concentrations depending on the capsule strengths.

[2] = 9-month toxicology study of once-a-day oral inecalcitol in monkeys (calcemia, toxicity); format: in vivo
Procedure: (§2) On FIG. 1, mean plasma concentrations of inecalcitol are plotted vs. time on the first day of the study and close to its end, at day 272. The mean toxicokinetic profiles are almost superimposable, with a mean peak of about 1.2 ng/ml achieved as soon as 15 minutes after oral intake, and a steady disappearance from circulation within 4 hours.

[3] = 9-month toxicokinetic study of once-a-day oral inecalcitol in monkeys (plasma concentrations); format: in vivo; settings: male mature monkeys, day 1 and day 272
Procedure: FIG. 1 illustrates the mean plasma concentrations vs time obtained during a 9-month toxicology study on once-a-day oral inecalcitol performed in male mature monkeys.
as §2

[4] = 2-week toxicology study of twice-a-day oral inecalcitol in monkeys (calcemia, toxicity); format: in vivo, cynomolgus monkeys; settings: for plasma calcium level (mean±s.e.m.): same 4 animals
Procedure: (§3) On FIG. 2, mean plasma concentrations of inecalcitol are plotted vs. time on the first day of treatment with two successive administrations of inecalcitol around 8 AM and 7 PM, i.e. about 11 hours apart. […] In both instances, inecalcitol levels returned to basal levels within 4 hours. In the table below, plasma calcium levels (in mmoles/L, mean±s.e.m.) were monitored in the same 4 animals for two weeks before and for two weeks during the treatment period.

[5] = 2-week toxicokinetic study of twice-a-day oral inecalcitol in monkeys (plasma concentrations); format: in vivo, cynomolgus monkeys; settings: first day of treatment
Procedure: FIG. 2 illustrates the mean plasma concentrations vs time obtained during a 2-week toxicology study on twice-a-day oral inecalcitol performed in male juvenile monkeys.
as §3

[6] = Pharmacokinetics of oral inecalcitol in HRPC patients (LC/MS/MS of plasma); format: in vivo; settings: human patients
Procedure: as §1
Inecalcitol was assayed as unchanged circulating compound in the plasma by liquid chromatography followed by tandem mass spectrometry (LC/MS/MS). […] At 600 μg and 1000 μg, mean peak values reached around 35 and 45 pg/ml (0.035 and 0.045 ng/ml) at 90 and 45 minutes, respectively.

[7] = Eelen et al. 2005; Verlinden et al. 2001; cited from earlier work
[8] = Eelen et al. 2005; Verlinden et al. 2001; cited from earlier work; remark: listed apart in the source
[9] = test system: human breast cancer cells; settings: in vitro and in vivo; Verlinden et al. 2000; cited from earlier work
[10] = male mature cynomolgus monkeys, daily oral, 9 months, up to highest tested dose 1.8 mg per day per monkey
[11] = male juvenile cynomolgus monkeys, twice daily oral, 2×1.6 mg each day, 2 weeks
[12] = 50 pts treated, inecalcitol with docetaxel and prednisone
[13] = HRPC patients, oral 300 μg, 600 μg, 1000 μg (qod,qd), 2 mg (qd) or 4 mg (qd)

SMILES: CC(=O)O[C@@]12CO[C@@H]1C[C@H](O)[C@@]1(C)C(=O)[C@H](O)C3=C(C)[C@@H](OC(=O)[C@H](O)[C@@H](NC(=O)OC(C)(C)C)c4ccccc4)C[C@@](O)([C@@H](OC(=O)c4ccccc4)[C@H]21)C3(C)C [docetaxel, reference compound]
- adverse events related to the drug [1]: All these AEs

SMILES: C[C@H](CC#CC(C)(C)O)[C@H]1CC[C@@H]2/C(=C/C=C3C[C@@H](O)C[C@H](O)C3)CCC[C@@]21C [inecalcitol, 19-nor-9,10-seco-14βH-cholesta-5(Z),7(E)-dien-23-ino-1α,3β,25-triol-23-yne]
- maximal tolerated dose ([2]; 9-month daily oral, highest tested dose 1.8 mg per day per monkey): has not been reached
- difference in plasma calcium levels between control and treated monkeys ([2]; different time points during the 9-month study): did not show any difference
- hypercalcemia [2, 10]: no hypercalcemia
- toxic effects [2, 10]: no toxic effects
- plasma calcium level (mean±s.e.m.) ([2]; treated monkeys n = 6, Day 85): 2.53 ± 0.03 mmol/L
- plasma calcium level (mean±s.e.m.) ([2]; treated monkeys n = 6, Day 175): 2.49 ± 0.05 mmol/L
- plasma calcium level (mean±s.e.m.) ([2]; treated monkeys n = 6, Day 268): 2.51 ± 0.05 mmol/L
- plasma calcium level (mean±s.e.m.) ([2]; treated monkeys n = 6, Day −12 (before treatment)): 2.54 ± 0.11 mmol/L
- mean peak plasma concentration ([3]; 1.8 mg per day): about 1.2 ng/ml
- disappearance from circulation [3]: ≤ 4 h
- time of mean peak after oral intake [3]: 15 min
- hypercalcemia [4, 11]: no hypercalcemia
- toxic effects [4, 11]: no toxic effects
- plasma calcium level (mean±s.e.m.) ([4]; Day 7 of treatment, 2×1.6 mg each day): 2.68 ± 0.15 mmol/L
- plasma calcium level (mean±s.e.m.) ([4]; Day 13 of treatment, 2×1.6 mg each day): 2.76 ± 0.12 mmol/L
- plasma calcium level (mean±s.e.m.) ([4]; Day −6 (before treatment)): 2.61 ± 0.06 mmol/L
- plasma calcium level (mean±s.e.m.) ([4]; Day −13 (before treatment)): 2.66 ± 0.088 mmol/L
- changes in plasma calcium ([4]; two weeks before vs two weeks during treatment): No significant changes
- return of inecalcitol levels to basal levels ([5]; after each of the two administrations): ≤ 4 h
- peak mean plasma concentration, second administration ([5]; male juvenile monkeys, 1.6 mg oral around 7 PM): 2.50 ng/mL
- peak mean plasma concentration, first administration ([5]; male juvenile monkeys, 1.6 mg oral around 8 AM): 2.75 ng/mL
- G1-2 adverse event: asthenia [1, 12]: 22 pts
- G1-2 adverse event: constipation [1, 12]: 15 pts
- G1-2 adverse event: diarrhea [1, 12]: 13 pts
- G3-4 AE: arrhythmia [1, 12]: 2 pts
- G3-4 AE: asthenia [1, 12]: 3 pts
- G3-4 AE: diarrhea [1, 12]: 1 pt
- G3-4 AE: general health deterioration [1, 12]: 3 pts
- G3-4 AE: lymphopenia [1, 12]: 12 pts
- G3-4 AE: neutropenia [1, 12]: 36 pts
- increased calcemia ([1]; HRPC patients, oral 40 μg to 4 mg qod or qd, with docetaxel and prednisone, 50 pts treated): No increased calcemia
- hypercalcemia [1, 13]: did not induce any hypercalcemia
- toxic effect [1, 13]: did not induce any hypercalcemia or any toxic effect
- adverse events related to the drug [1]: none
- peak plasma values ([6]; oral 300 μg, lower limit of quantitation 10 pg/ml): barely detectable above the lower limit of quantitation
- time of mean peak value ([6]; oral 600 μg): 90 min
- time of mean peak value ([6]; oral 1000 μg): 45 min
- time of mean peak value ([6]; oral 2 mg): 90 min
- time of mean peak value ([6]; oral 4 mg): 45 min
- half-life ([6]; male, plasma, four mean profiles between 600 μg and 4 mg oral, read-out: approximate half-life): 1 to 1.5 h
- antiproliferative effects compared with calcitriol [7]: enhanced
- calcemic effects compared with calcitriol [8]: markedly lower
- activity on growth of human breast cancer cells [9]: inhibiting the growth
